Measured values taken from US9567358B2, “Methods of treatment using N-(3-fluorophenyl)-2-{3-[(7-{3-[ethyl(2-hydroxyethyl)amino]propoxy}-quinazolin-4-yl)amino]-1H-pyrazol-5-yl}acetamide” (AstraZeneca AB, priority 2002, dated 2017).

Tests used:
[1] = molecular target: T1, Aurora-B (Homo sapiens, UniProt Q96GD4); test: In vitro Aurora-B kinase inhibition test; assay type: biochemical; settings: recombinant Aurora-B, 33P-ATP peptide substrate filter assay, 60 minutes, room temperature; read-out: concentration giving 50% inhibition of enzyme activity
T1 construct: 6-histidine tag; made in house; host or cells: Spodoptera frugiperda Sf21 insect cells (baculovirus)
From the text: (b) In Vitro Aurora-B Kinase Inhibition Test
This assay determines the ability of a test compound to inhibit serine-threonine kinase activity. DNA encoding Aurora-B may be obtained by total gene synthesis or by cloning. This DNA may then be expressed in a suitable expression system to obtain polypeptide with serine-threonine kinase activity. In the case of Aurora-B, the coding sequence was isolated from cDNA by polymerase chain reaction (PCR) and cloned into the pFastBac system in a manner similar to that described above for Aurora-A (i.e. to direct expression of a 6-histidine tagged Aurora-B protein).
For the large scale expression of Aurora-B kinase activity, Sf21 insect cells were grown at 28° C. in TC100 medium supplemented with 10% foetal calf serum (Viralex) and 0.2% F68 Pluronic (Sigma) on a Wheaton roller rig at 3 r.p.m. When the cell density reached 1.2×10^6 cells ml^−1 they were infected with plaque-pure Aurora-B recombinant virus at a multiplicity of infection of 1 and harvested 48 hours later. All subsequent purification steps were performed at 4° C. […]

[2] = test system: human tumour cell line SW620; test: In vitro cell proliferation assay (BrdU incorporation); assay type: cell-based; settings: SW-620, SW620 cells, 48 hours with compound, 2 hour BrdU labelling, read-out: active at (concentration giving 50% inhibition of BrdU incorporation)
From the text: (c) In Vitro Cell Proliferation Assay
This and other assays can be used to determine the ability of a test compound to inhibit the growth of adherent mammalian cell lines, for example the human tumour cell line SW620 (ATCC CCL-227). This assay determines the ability of at test compound to inhibit the incorporation of the thymidine analogue, 5′-bromo-2′-deoxy-uridine (BrdU) into cellular DNA. SW620 or other adherent cells were typically seeded at 1×10^5 cells per well in L-15 media (GIBCO) plus 5% foetal calf serum, 1% L-glutamine (100 μl/well) in 96 well tissue culture treated 96 well plates (Costar) and allowed to adhere overnight. […] The optical density of the wells was then determined at 690 nm wavelength using a Titertek Multiscan plate reader. […]

[3] = molecular target: T2, Aurora-A (Homo sapiens, UniProt O14965); test: In vitro Aurora-A kinase inhibition test; assay type: biochemical
T2 construct: 6 histidine tag with spacer region and rTEV protease cleavage site (pFastBac HTc) (N); made in house; host or cells: Spodoptera frugiperda Sf21 insect cells (baculovirus)
T2 sequence (O14965 1-403): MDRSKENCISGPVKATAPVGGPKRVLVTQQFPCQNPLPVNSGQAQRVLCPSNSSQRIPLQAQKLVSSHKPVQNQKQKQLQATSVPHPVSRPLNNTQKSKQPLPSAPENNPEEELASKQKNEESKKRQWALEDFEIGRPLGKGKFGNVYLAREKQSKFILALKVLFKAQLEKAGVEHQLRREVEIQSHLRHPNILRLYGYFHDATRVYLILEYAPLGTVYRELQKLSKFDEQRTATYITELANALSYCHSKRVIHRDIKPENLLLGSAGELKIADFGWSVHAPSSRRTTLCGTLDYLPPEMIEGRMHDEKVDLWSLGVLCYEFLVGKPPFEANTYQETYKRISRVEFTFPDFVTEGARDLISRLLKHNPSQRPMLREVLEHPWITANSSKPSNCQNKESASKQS

T1 sequence (Q96GD4 whole entry): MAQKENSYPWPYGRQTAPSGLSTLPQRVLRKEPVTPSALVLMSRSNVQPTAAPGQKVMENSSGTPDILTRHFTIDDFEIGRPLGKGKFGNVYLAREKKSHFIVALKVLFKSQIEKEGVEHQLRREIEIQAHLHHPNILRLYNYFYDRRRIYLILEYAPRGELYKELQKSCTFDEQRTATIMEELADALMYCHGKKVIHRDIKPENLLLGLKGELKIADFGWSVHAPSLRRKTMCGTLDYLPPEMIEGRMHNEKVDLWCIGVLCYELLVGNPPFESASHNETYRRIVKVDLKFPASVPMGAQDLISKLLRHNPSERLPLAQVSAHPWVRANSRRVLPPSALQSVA

In the case of `COc1cc2c(Nc3cc(CC(=O)Nc4cccc(F)c4)[nH]n3)ncnc2cc1OCCCN1CCC[C@H]1COP(=O)(O)O` [Compound 5, {(2S)-1-[3-({4-[(5-{2-[(3-fluorophenyl)amino]-2-oxoethyl}-1H-pyrazol-3-yl)amino]-6-methoxyquinazolin-7-yl}oxy)propyl]pyrrolidin-2-yl}methyl dihydrogen phosphate], the IC50 [1] is reported as 1.6 nM, the IC50 [2] is reported as 0.1 nM and the IC50 [3] is reported as 5.5 nM.
